Experimental data: ChEMBL document CHEMBL1124209, “Phosphonoformate and phosphonoacetate derivatives of 5-substituted 2'-deoxyuridines: synthesis and antiviral activity” (1988)
Values after ≈ are worked out from the molar mass of the structure shown.

Experiments:
Format in all cases: functional
[1] = tested on: Human alphaherpesvirus 2; test: Minimum inhibitory concentration causing 25% inhibition cytopathic effect induced by Herpes simplex virus(HSV) -2 (thymidine kinase deficient) in vero cells
[2] = tested on: Human alphaherpesvirus 1; test: Minimum inhibitory concentration causing 25% inhibition of cytopathic effect induced by Herpes simplex virus-1 (K979) in HEp-2 cells
[3] = tested on: Human alphaherpesvirus 1; test: Minimum inhibitory concentration causing 25% inhibition of cytopathic effect induced by herpes simplex virus (HSV)-1 (K979) in vero cells.
[4] = tested on: Human alphaherpesvirus 1; test: Minimum inhibitory concentration causing 25% inhibition of cytopathic effect induced by Herpes simplex virus(HSV) -1 (thymidine kinase deficient) in vero cells
[5] = tested on: Human alphaherpesvirus 1; test: Minimum inhibitory concentration of compound causing 50% inhibition of cytopathic effect induced by HSV-1 in PRK cells
[6] = tested on: Human alphaherpesvirus 1; test: Minimum inhibitory concentration of compound causing 50% inhibition of cytopathic effect induced by HSV-1(thymidine kinase deficient) in PRK cells
[7] = tested on: Human alphaherpesvirus 1; test: Minimum inhibitory concentration causing 25% inhibition cytopathic effect induced by Herpes simplex virus(HSV) -1 (thymidine kinase deficient) in HEp-2 cells
[8] = tested on: Human alphaherpesvirus 1; test: Minimum inhibitory concentration causing 25% inhibition of cytopathic effect induced by Herpes simplex virus-1 (Brand) in vero cells
[9] = tested on: Human alphaherpesvirus 1; test: Minimum inhibitory concentration causing 25% inhibition cytopathic effect induced by Herpes simplex virus-1 (Brand) in HEp-2 cells
[10] = tested on: Human alphaherpesvirus 2; test: Minimum inhibitory concentration causing 25% inhibition of cytopathic effect induced by Herpes simplex virus(HSV) -2 (thymidine kinase deficient) in HEp-2 cells
[11] = tested on: Human alphaherpesvirus 2; test: Minimum inhibitory concentration of compound causing 50% inhibition of cytopathic effect induced by HSV-2 in PRK cells
[12] = tested on: Human alphaherpesvirus 1; test: Mean survival time in HSV-1 infected mice, after intraperitoneal administration of 0.5 mg/kg of compound
[13] = tested on: Human alphaherpesvirus 1; test: Mean survival time in HSV-1 infected mice, after peroral administration of 5 mg/kg of compound; settings: route oral
[14] = tested on: Mus musculus; test: Cumulative lesions in HSV-1 infected mice, after administration of 0.1 % of compound intracutaneously
[15] = tested on: Mus musculus; test: Cumulative lesions in HSV-1 infected mice, after administration of 0.3 % of compound intracutaneously
[16] = tested on: Mus musculus; test: Mean duration of lesions in HSV-1 infected mice, after administration of 0.1 % of compound intracutaneously
[17] = tested on: Mus musculus; test: Mean duration of lesions in HSV-1 infected mice, after administration of 0.3 % of compound intracutaneously
[18] = tested on: Human alphaherpesvirus 1; test: Cumulative mortality in percent of HSV-1 infected mice, after intraperitoneal administration of 0.5 mg/kg of compound
[19] = tested on: Human alphaherpesvirus 1; test: Cumulative mortality in percent of HSV-1 infected mice, after peroral administration of 5 mg/kg of compound; settings: route oral
[20] = organism: Oryctolagus cuniculus; test: Minimum cytotoxic concentration of compound causing toxic effects on uninfected cells
[21] = organism: Oryctolagus cuniculus; test: Minimum cytotoxic concentration causing toxic effects on uninfected cells in rabbit
[22] = tested on: Human alphaherpesvirus 1; test: Minimum inhibitory concentration causing 50% inhibition of cytopathic effect induced by HSV-1 in PRK cells
[23] = tested on: Human alphaherpesvirus 1; test: Minimum inhibitory concentration causing 50% inhibition of cytopathic effect induced by HSV-1(thymidine kinase deficient) in PRK cells
[24] = tested on: Human alphaherpesvirus 1; test: (§1) Minimum inhibitory concentration causing 50% inhibition of cytopathic effect induced by HSV-2 in PRK cells
[25] = tested on: Mus musculus; test: Cumulative mortality in percent of HSV-1 (KOS strain) infected mice, after peroral administration of 100 mg/kg of compound; settings: route oral
[26] = tested on: Human alphaherpesvirus 2; test: as §1
[27] = tested on: Mus musculus; test: Cumulative mortality in percent of HSV-1 infected mice, after peroral administration of 100 mg/kg of compound; settings: route oral
[28] = tested on: Human alphaherpesvirus 1; test: Minimum inhibitory concentration causing 50% inhibition of cytopathic effect induced by HSV-1 (thymidine kinase deficient) in PRK cells
[29] = tested on: Human alphaherpesvirus 1; test: Minimum inhibitory concentration causing 25% inhibition of cytopathic effect induced by Herpes simplex virus(HSV) -1 (thymidine kinase deficient) in HEp-2 cells
[30] = tested on: Human alphaherpesvirus 2; test: Minimum inhibitory concentration causing 25% inhibition of cytopathic effect induced by Herpes simplex virus(HSV) -2 (thymidine kinase deficient) in vero cells
[31] = tested on: Human alphaherpesvirus 1; test: Mean survival time in HSV-1 infected mice, after intraperitoneal administration of 1 mg/kg of compound
[32] = tested on: Human alphaherpesvirus 1; test: Mean survival time in HSV-1 infected mice, after intraperitoneal administration of 5 mg/kg of compound
[33] = tested on: Human alphaherpesvirus 1; test: Mean survival time in HSV-1 infected mice, after peroral administration of 10 mg/kg of compound; settings: route oral
[34] = tested on: Human alphaherpesvirus 1; test: Mean survival time in HSV-1 infected mice, after peroral administration of 1 mg/kg of compound; settings: route oral
[35] = tested on: Human alphaherpesvirus 1; test: Cumulative mortality in percent of HSV-1 infected mice, after intraperitoneal administration of 1 mg/kg of compound
[36] = tested on: Human alphaherpesvirus 1; test: Cumulative mortality in percent of HSV-1 infected mice, after intraperitoneal administration of 5 mg/kg of compound
[37] = tested on: Human alphaherpesvirus 1; test: Cumulative mortality in percent of HSV-1 infected mice, after peroral administration of 1 mg/kg of compound; settings: route oral
[38] = tested on: Human alphaherpesvirus 1; test: Cumulative mortality in percent of HSV-1 infected mice, after peroral administration of 10 mg/kg of compound; settings: route oral
[39] = tested on: Human alphaherpesvirus 1; test: Minimum inhibitory concentration causing 25% inhibition of cytopathic effect induced by Herpes simplex virus(HSV) -1 (Brand) in HEp-2 cells

O=c1[nH]c(=O)n([C@H]2C[C@H](O)[C@@H](CO)O2)cc1CCCl
MIC [1]: > 342 µM
MIC [2]: 10.2 µM (≈ 2.97 µg/mL)
MIC [3]: 102 µM (≈ 29.7 µg/mL)
MIC [4]: 34.2 µM (≈ 9.94 µg/mL)
MIC [5]: 0.3 µM (≈ 0.0872 µg/mL)
MIC [6]: > 1370 µM
MIC [7]: > 342 µM
MIC [8]: 0.03 µM (≈ 0.00872 µg/mL)
MIC [9]: 0.1 µM (≈ 0.0291 µg/mL)
MIC [10]: > 342 µM
MIC [11]: 34.2 µM (≈ 9.94 µg/mL)
MST [12]: 16.7 days
MST [13]: 19 days
lesions [14]: 40
lesions [15]: 17
MDL [16]: 2.4 days
MDL [17]: 0.9 days
CMP [18]: 35
CMP [19]: 10
MTC [20]: >1366 µM
MTC [21]: 1127 µM

CCOC(=O)CP(=O)(O)OC[C@H]1O[C@@H](n2cc(/C=C/Br)c(=O)[nH]c2=O)C[C@@H]1O
MIC [22]: 41.4 µM (≈ 20 µg/mL)
MIC [23]: > 828 µM
MIC [24]: > 828 µM
CMP [25]: 80
MTC [21]: >=828 uM

CCOC(=O)P(=O)(O)OC[C@H]1O[C@@H](n2cc(/C=C\Br)c(=O)[nH]c2=O)C[C@@H]1O
MIC [22]: 4.1 µM (≈ 1.92 µg/mL)
MIC [23]: > 81.1 µM
MIC [26]: > 81.1 µM
CMP [27]: 70
MTC [21]: >=81.1 uM

COC(=O)P(=O)(O)OC[C@H]1O[C@@H](n2cc(/C=C\Br)c(=O)[nH]c2=O)C[C@@H]1O
MIC [28]: > 87.9 µM
MIC [22]: 1.5 µM (≈ 0.683 µg/mL)
MIC [26]: > 87.9 µM
CMP [25]: 50
MTC [21]: >=87.9 uM

CCOC(=O)CP(=O)(OC)OC[C@H]1O[C@@H](n2cc(I)c(=O)[nH]c2=O)C[C@@H]1O (stereo partly specified)
MIC [1]: > 193 µM
MIC [2]: 57.9 µM (≈ 30 µg/mL)
MIC [3]: 57.9 µM (≈ 30 µg/mL)
MIC [4]: 57.9 µM (≈ 30 µg/mL)
MIC [7]: 1.9 µM (≈ 0.985 µg/mL)
MIC [8]: 1.9 µM (≈ 0.985 µg/mL)
MIC [9]: 5.8 µM (≈ 3.01 µg/mL)
MIC [10]: 193 µM (≈ 100 µg/mL)
MTC [21]: 193 µM

O=C(CP(=O)(O)O)OC[C@H]1O[C@@H](n2cc(CCCl)c(=O)[nH]c2=O)C[C@@H]1O
MIC [2]: > 242 µM
MIC [3]: > 242 µM
MIC [29]: 242 µM (≈ 99.9 µg/mL)
MIC [4]: 72.7 µM (≈ 30 µg/mL)
MIC [8]: 24.2 µM (≈ 9.99 µg/mL)
MIC [9]: 24.2 µM (≈ 9.99 µg/mL)
MIC [10]: 242 µM (≈ 99.9 µg/mL)
MIC [30]: 72.7 µM (≈ 30 µg/mL)
MST [12]: 12.2 days
MST [31]: 16 days
MST [32]: 18.3 days
MST [33]: 16.3 days
MST [34]: 11.8 days
MST [13]: 15.3 days
lesions [15]: 40
MDL [17]: 2.4 days
CMP [18]: 75
CMP [35]: 33
CMP [36]: 17
CMP [37]: 67
CMP [19]: 50
CMP [38]: 42
MTC [21]: 800 µM

COP(=O)(CC(=O)OC[C@H]1O[C@@H](n2cc(I)c(=O)[nH]c2=O)C[C@@H]1O)OC
MIC [2]: 198 µM (≈ 99.8 µg/mL)
MIC [3]: 5.9 µM (≈ 2.97 µg/mL)
MIC [29]: > 198 µM
MIC [4]: 2 µM (≈ 1.01 µg/mL)
MIC [8]: 0.6 µM (≈ 0.303 µg/mL)
MIC [39]: 0.2 µM (≈ 0.101 µg/mL)
MIC [30]: 59.5 µM (≈ 30 µg/mL)
MTC [21]: 655 µM
